# Results from patent US20110182850A1, “ORGANIC COMPOUNDS AND THEIR USES” (priority 2009, published 2011).
# pIC50: −log10 of the molar value.
# Target: T1, HCV NS3-4A serine protease (full-length NS3-4A protein, genotype 1a, strain HCV-1) (Hepatitis C virus genotype 1a, UniProt P26664)
# T1 construct: using the full-length NS3-4A protein (genotype 1a, strain HCV-1)
# Test: HCV NS3-4A protease assay
# Type: biochemical
# Details: Protease IC50
# Method: The inhibitory activity of certain compounds of Table A against HCV NS3-4A serine protease is determined in a homogenous assay using the full-length NS3-4A protein (genotype 1a, strain HCV-1) and a commercially available internally-quenched fluorogenic peptide substrate as described by Taliani, M., et al. 1996 Anal. Biochem. 240:60-67, which is incorporated by reference in its entirety.
# T1 sequence (P26664 1658-1711): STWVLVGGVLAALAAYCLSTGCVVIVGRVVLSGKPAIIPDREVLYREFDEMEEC
# T1 sequence (P26664 1027-1657): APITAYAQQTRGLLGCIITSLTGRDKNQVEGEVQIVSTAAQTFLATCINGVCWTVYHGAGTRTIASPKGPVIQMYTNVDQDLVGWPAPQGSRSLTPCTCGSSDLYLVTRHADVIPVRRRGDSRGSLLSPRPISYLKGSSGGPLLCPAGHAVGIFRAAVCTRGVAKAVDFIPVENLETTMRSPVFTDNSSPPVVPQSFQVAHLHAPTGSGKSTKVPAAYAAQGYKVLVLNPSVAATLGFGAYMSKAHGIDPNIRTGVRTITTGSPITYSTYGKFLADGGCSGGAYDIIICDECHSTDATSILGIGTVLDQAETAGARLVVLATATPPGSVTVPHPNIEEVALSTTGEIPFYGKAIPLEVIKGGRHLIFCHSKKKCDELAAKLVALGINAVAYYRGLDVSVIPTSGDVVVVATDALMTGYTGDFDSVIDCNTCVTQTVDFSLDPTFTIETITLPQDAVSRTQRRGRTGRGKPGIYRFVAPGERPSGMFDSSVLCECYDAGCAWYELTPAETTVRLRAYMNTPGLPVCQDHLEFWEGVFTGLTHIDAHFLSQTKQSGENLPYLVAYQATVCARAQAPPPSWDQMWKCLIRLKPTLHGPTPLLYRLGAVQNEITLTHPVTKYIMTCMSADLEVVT
row,SMILES,pIC50
1,"C=C[C@@H]1C[C@]1(NC(=O)[C@@H]1C[C@@]2(CN1C(=O)[C@@H](NC(=O)[C@H]1NC(=O)[C@@H]3CCCCN3CCCCCCC1(C)C)C(C)(C)C)C(C)(C)C21CCC1)C(=O)NS(=O)(=O)C1CC1 [Compound 53, (5R,8S)-N-{(1R,2S)-1-[(cyclopropylsulfonyl)carba-moyl]-2-vinylcyclopropyl}-7-[(2S)-2-({[(3S,15aS)-4,4-dimethyl-1-oxotetradecahydro-2H-pyrido[1,2-a][1,4]diazacyclododecin-3-yl]carbonyl}amino)-3,3-dimethylbutanoyl]-10,10-dimethyl-7-azadispiro[3.0.4.1]decane-8-carboxamide]",8.46
2,"C=C[C@@H]1C[C@]1(NC(=O)[C@@H]1C[C@@]2(CN1C(=O)[C@@H](NC(=O)[C@@H](NC(=O)N1CCN(C)CC1)C(C)(C)C)C(C)(C)C)C(C)(C)C21CCC1)C(=O)NS(=O)(=O)C1CC1 [Compound 55, (5R,8S)-N-{(1R,2S)-1-[(cyclopropylsulfonyl)carba-moyl]-2-vinylcyclopropyl}-7-[(2S)-2-{[(2S)-3,3-dimethyl-2-{[(4-methylpiperazin-1-yl)carbonyl]amino}butanoyl]amino}-3,3-dimethylbutanoyl]-10,10-dimethyl-7-azadispiro[3.0.4.1]decane-8-carboxamide]",7.60
3,"C=C[C@@H]1C[C@]1(NC(=O)[C@@H]1C[C@@]2(CN1C(=O)[C@@H](NC(=O)[C@@H](NC(=O)N(C)C)C(C)(C)C)C(C)(C)C)C(C)(C)C21CCC1)C(=O)NS(=O)(=O)C1CC1 [Compound 56, (5R,8S)-N-{(1R,2S)-1-[(cyclopropylsulfonyl)carba-moyl]-2-vinylcyclopropyl}-7-[(2S)-2-({(2S)-2-[(dimethylcarbamoyl)amino]-3,3-dimethylbutanoyl}amino)-3,3-dimethylbutanoyl]-10,10-dimethyl-7-azadispiro[3.0.4.1]decane-8-carboxamide]",7.30

# Same assay, conditions: read-out: Protease IC50
row,SMILES,pIC50
1,"C=C[C@@H]1C[C@]1(NC(=O)[C@@H]1C[C@@]2(CN1C(=O)[C@@H](NC(=O)[C@@H](NS(=O)(=O)c1ccccc1)C(C)(C)C)C(C)(C)C)C(C)(C)C21CCC1)C(=O)NS(=O)(=O)C1CC1 [Compound 46, (5R,8S)-N-{(1R,2S)-1-[(cyclopropylsulfonyl)carba-moyl]-2-vinylcyclopropyl}-7-[(2S)-2-({(2S)-3,3-dimethyl-2-[(phenylsulfonyl)amino]butanoyl}amino)-3,3-dimethylbutanoyl]-10,10-dimethyl-7-azadispiro[3.0.4.1]decane-8-carboxamide]",6.82
2,"C=C[C@@H]1C[C@]1(NC(=O)[C@@H]1C[C@@]2(CN1C(=O)[C@@H](NC(=O)[C@@H](NS(C)(=O)=O)C(C)(C)C)C(C)(C)C)C(C)(C)C21CCC1)C(=O)NS(=O)(=O)C1CC1 [Compound 47, (5R,8S)-N-{(1R,2S)-1-[(cyclopropylsulfonyl)carba-moyl]-2-vinylcyclopropyl}-7-[(2S)-2-({(2S)-3,3-dimethyl-2-[(methylsulfonyl)amino]butanoyl}amino)-3,3-dimethylbutanoyl]-10,10-dimethyl-7-azadispiro[3.0.4.1]decane-8-carboxamide]",7.19
3,"C=C[C@@H]1C[C@]1(NC(=O)[C@@H]1C[C@@]2(CN1C(=O)[C@@H](NC(=O)[C@@H](NS(=O)(=O)N(C)C)C(C)(C)C)C(C)(C)C)C(C)(C)C21CCC1)C(=O)NS(=O)(=O)C1CC1 [Compound 48, (5R,8S)-N-{(1R,2S)-1-[(cyclopropylsulfonyl)carba-moyl]-2-vinylcyclopropyl}-7-[(2S)-2-{[(2S)-2-{[(dimethylamino)sulfonyl]amino}-3,3-dimethylbutanoyl]amino}-3,3-dimethylbutanoyl]-10,10-dimethyl-7-azadispiro[3.0.4.1]decane-8-carboxamide]",7.02
4,"C=C[C@@H]1C[C@]1(NC(=O)[C@@H]1C[C@@]2(CN1C(=O)[C@@H](NC(=O)[C@@H](NS(=O)(=O)c1ncn[nH]1)C(C)(C)C)C(C)(C)C)C(C)(C)C21CCC1)C(=O)NS(=O)(=O)C1CC1 [Compound 49, (5R,8S)-N-{(1R,2S)-1-[(cyclopropylsulfonyl)carba-moyl]-2-vinylcyclopropyl}-7-[(2S)-2-({(2S)-3,3-dimethyl-2-[(1H-1,2,4-triazol-5-ylsulfonyl)amino]butanoyl}amino)-3,3-dimethylbutanoyl]-10,10-dimethyl-7-azadispiro[3.0.4.1]decane-8-carboxamide]",6.70
5,"C=C[C@@H]1C[C@]1(NC(=O)[C@@H]1C[C@@]2(CN1C(=O)[C@@H](NC(=O)[C@@H](NS(=O)(=O)Cc1ccccc1)C(C)(C)C)C(C)(C)C)C(C)(C)C21CCC1)C(=O)NS(=O)(=O)C1CC1 [Compound 50, (5R,8S)-7-[(2S)-2-({(2S)-2-[(benzylsulfonyl)amino]-3,3-dimethylbutanoyl}amino)-3,3-dimethylbutanoyl]-N-{(1R,2S)-1-[(cyclopropylsulfonyl)carba-moyl]-2-vinylcyclopropyl}-10,10-dimethyl-7-azadispiro[3.0.4.1]decane-8-carboxamide]",7.70

# The next lines start with the values.
row,pIC50,SMILES
1,6.60,"C=C[C@@H]1C[C@]1(NC(=O)[C@@H]1C[C@@]2(CN1C(=O)[C@@H](NC(=O)[C@@H](NS(=O)(=O)c1c(C)noc1C)C(C)(C)C)C(C)(C)C)C(C)(C)C21CCC1)C(=O)NS(=O)(=O)C1CC1 [Compound 51, (5R,8S)-N-{(1R,2S)-1-[(cyclopropylsulfonyl)carba-moyl]-2-vinylcyclopropyl}-7-[(2S)-2-{[(2S)-2-{[(3,5-dimethylisoxazol-4-yl)sulfonyl]amino}-3,3-dimethylbutanoyl]amino}-3,3-dimethylbutanoyl]-10,10-dimethyl-7-azadispiro[3.0.4.1]decane-8-carboxamide]"
2,6.70,"C=C[C@@H]1C[C@]1(NC(=O)[C@@H]1C[C@@]2(CN1C(=O)[C@@H](NC(=O)[C@@H](NS(=O)(=O)c1cn(C)cn1)C(C)(C)C)C(C)(C)C)C(C)(C)C21CCC1)C(=O)NS(=O)(=O)C1CC1 [Compound 52, (5R,8S)-N-{(1R,2S)-1-[(cyclopropylsulfonyl)carba-moyl]-2-vinylcyclopropyl}-7-[(2S)-2-{[(2S)-3,3-dimethyl-2-{[(1-methyl-1H-imidazol-4-yl)sulfonyl]amino}butanoyl]amino}-3,3-dimethylbutanoyl]-10,10-dimethyl-7-azadispiro[3.0.4.1]decane-8-carboxamide]"
3,5.67,"C=C[C@@H]1C[C@]1(NC(=O)[C@@H]1C[C@@]2(CN1C(=O)[C@@H](NC(=O)c1cocn1)C(C)(C)C)C(C)(C)C21CCC1)C(=O)NS(=O)(=O)C1CC1 [Compound 54, (5R,8S)-N-{(1R,2S)-1-[(cyclopropylsulfonyl)carba-moyl]-2-vinylcyclopropyl}-7-{(2S)-3,3-dimethyl-2-[(1,3-oxazol-4-ylcarbonyl)amino]butanoyl}-10,10-dimethyl-7-azadispiro[3.0.4.1]decane-8-carboxamide]"
4,6.40,"C=C[C@@H]1C[C@]1(NC(=O)[C@@H]1C[C@@]2(CN1C(=O)[C@@H](NC(=O)[C@@H](NS(=O)(=O)C(C)C)C(C)(C)C)C(C)(C)C)C(C)(C)C21CCC1)C(=O)NS(=O)(=O)C1CC1 [Compound 58, (5R,8S)-N-{(1R,2S)-1-[(cyclopropylsulfonyl)carba-moyl]-2-vinylcyclopropyl}-7-[(2S)-2-({(2S)-2-[(isopropylsulfonyl)amino]-3,3-dimethylbutanoyl}amino)-3,3-dimethylbutanoyl]-10,10-dimethyl-7-azadispiro[3.0.4.1]decane-8-carboxamide]"
